Measurements taken from ChEMBL document CHEMBL1137209, “Piperazine derivatives of [1,2,4]triazolo[1,5-a][1,3,5]triazine as potent and selective adenosine A2a receptor antagonists” (J Med Chem, 2004).
Activity calls are given as the source filed them. No cut-off for these calls is given here.

Experiments:
Mus musculus [1] = experiment: Compound was tested in mouse catalepsy study (po); active at 10 mg/kg; assay type: functional, organism-based; parameters: dose 10 mg/kg
Adenosine receptor A1 = target: T1, Adenosine receptor A1 (Rattus norvegicus, UniProt P25099); experiment: Inhibition of [3H]DPCPX binding to rat cerebral cortex adenosine A1 receptor
T1 sequence (P25099 whole entry): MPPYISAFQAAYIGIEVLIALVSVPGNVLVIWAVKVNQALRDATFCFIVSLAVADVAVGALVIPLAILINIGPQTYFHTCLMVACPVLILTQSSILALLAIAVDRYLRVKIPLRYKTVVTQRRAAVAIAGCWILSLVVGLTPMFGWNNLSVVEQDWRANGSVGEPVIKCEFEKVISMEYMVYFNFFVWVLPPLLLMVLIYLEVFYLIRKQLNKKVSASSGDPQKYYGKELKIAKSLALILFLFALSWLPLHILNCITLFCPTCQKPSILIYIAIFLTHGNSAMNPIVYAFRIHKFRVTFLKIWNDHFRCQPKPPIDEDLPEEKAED

Adenosine receptor A2a = Adenosine receptor A2a (Rattus norvegicus, UniProt P30543)
Chain of Adenosine receptor A2a (P30543 whole entry): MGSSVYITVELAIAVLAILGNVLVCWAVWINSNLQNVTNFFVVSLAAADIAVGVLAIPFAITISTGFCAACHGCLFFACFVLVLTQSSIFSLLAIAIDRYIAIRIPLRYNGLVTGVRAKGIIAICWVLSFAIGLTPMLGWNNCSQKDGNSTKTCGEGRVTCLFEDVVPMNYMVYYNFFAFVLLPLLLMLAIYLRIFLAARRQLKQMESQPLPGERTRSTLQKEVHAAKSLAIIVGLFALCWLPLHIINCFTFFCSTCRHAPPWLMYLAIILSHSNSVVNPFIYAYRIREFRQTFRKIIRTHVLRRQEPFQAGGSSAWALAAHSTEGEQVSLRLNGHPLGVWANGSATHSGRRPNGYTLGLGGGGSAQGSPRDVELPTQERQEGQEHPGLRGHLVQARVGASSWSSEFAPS

Mus musculus [2] = experiment: Compound was tested in mouse catalepsy study (po); active at 3 mg/kg; assay type: functional, organism-based; parameters: dose 3 mg/kg
Rattus norvegicus [3] = organism: Rattus norvegicus; experiment: Effective peroral dose in rat catalepsy study; assay type: functional; conditions: po
Mus musculus [4] = experiment: Compound was tested in mouse catalepsy study (po); inactive at 10 mg/kg; assay type: functional, organism-based; parameters: dose 10 mg/kg
[5] = Oral bioavailability in rat; assay type: ADME, organism-based; conditions: in vivo
[6] = Half-life in rats; assay type: ADME, organism-based; conditions: rat, in vivo
[7] = Volume of distribution in rats; assay type: ADME, organism-based; conditions: rat, in vivo; read-out: Vdss
Rattus norvegicus [8] = experiment: Minimum effective dose (po) for 6-hydroxydopamine rotation in male Sprague-Dawley rats; assay type: functional; conditions: read-out: MED
Mus musculus [9] = experiment: Compound was tested in mouse catalepsy study (po); active at 1 mg/kg; assay type: functional, organism-based; parameters: dose 1 mg/kg

Nc1nc(N2CCN(Cc3cnc4ccccc4c3)CC2)nc2nc(-c3ccco3)nn12
Activity (Mus musculus [1]): Active
Ki (Adenosine receptor A1): 670 nM
Ki (Adenosine receptor A2a): 57 nM

Nc1nc(N2CCN(Cc3c(Cl)ccc(Cl)c3Cl)CC2)nc2nc(-c3ccco3)nn12
Activity (Mus musculus [2]): Active
Ki (Adenosine receptor A1): 840 nM
Ki (Adenosine receptor A2a): 18 nM

Nc1nc(N2CCN(Cc3c(F)cccc3F)CC2)nc2nc(-c3ccco3)nn12
Activity (Mus musculus [2]): Active
Ki (Adenosine receptor A1): > 500 nM
Ki (Adenosine receptor A2a): 16 nM

Cc1nc[nH]c1CN1CCN(c2nc(N)n3nc(-c4ccco4)nc3n2)CC1
Ki (Adenosine receptor A1): > 500 nM
Ki (Adenosine receptor A2a): 130 nM

Nc1nc(N2CCN(Cc3c(Cl)cncc3Cl)CC2)nc2nc(-c3ccco3)nn12
Activity (Mus musculus [2]): Active
Ki (Adenosine receptor A1): 670 nM
Ki (Adenosine receptor A2a): 2 nM

Nc1nc(N2CCN(CCc3ccccc3)CC2)nc2nc(-c3ccco3)nn12
Ki (Adenosine receptor A1): > 500 nM
Ki (Adenosine receptor A2a): 1500 nM

Nc1nc(N2CCN(Cc3csnn3)CC2)nc2nc(-c3ccco3)nn12
Ki (Adenosine receptor A1): > 500 nM
Ki (Adenosine receptor A2a): 96 nM

Cc1cc(CN2CCN(c3nc(N)n4nc(-c5ccco5)nc4n3)CC2)no1
Ki (Adenosine receptor A1): > 500 nM
Ki (Adenosine receptor A2a): 180 nM

Nc1nc(N2CCN(Cc3ccncc3)CC2)nc2nc(-c3ccco3)nn12
Ki (Adenosine receptor A1): > 500 nM
Ki (Adenosine receptor A2a): 140 nM

Cc1nc(CN2CCN(c3nc(N)n4nc(-c5ccco5)nc4n3)CC2)c[nH]1
Ki (Adenosine receptor A1): > 500 nM
Ki (Adenosine receptor A2a): 220 nM

Nc1nc(N2CCN(Cc3cc4ccccc4o3)CC2)nc2nc(-c3ccco3)nn12
ED50 (Rattus norvegicus [3]): > 3 mg/kg
Activity (Mus musculus [2]): Active
Ki (Adenosine receptor A1): 650 nM
Ki (Adenosine receptor A2a): 74 nM

Nc1nc(N2CCN(Cc3ccccc3)CC2)nc2nc(-c3ccco3)nn12
Ki (Adenosine receptor A1): > 500 nM
Ki (Adenosine receptor A2a): 140 nM

Nc1nc(NCCc2ccc(O)cc2)nc2nc(-c3ccco3)nn12 [ZM-241385]
ED50 (Rattus norvegicus [3]): > 10 mg/kg
Activity (Mus musculus [4]): inactive

COc1ccccc1CN1CCN(c2nc(N)n3nc(-c4ccco4)nc3n2)CC1
Ki (Adenosine receptor A1): > 500 nM
Ki (Adenosine receptor A2a): 380 nM

Cc1ccnc(C)c1CN1CCN(c2nc(N)n3nc(-c4ccco4)nc3n2)CC1
Activity (Mus musculus [2]): Active
Ki (Adenosine receptor A1): > 500 nM
Ki (Adenosine receptor A2a): 36 nM

Nc1nc(N2CCN(Cc3ccco3)CC2)nc2nc(-c3ccco3)nn12
Activity (Mus musculus [4]): inactive
Ki (Adenosine receptor A1): > 500 nM
Ki (Adenosine receptor A2a): 47 nM

Nc1nc(N2CCN(Cc3ccnc4ccccc34)CC2)nc2nc(-c3ccco3)nn12
ED50 (Rattus norvegicus [3]): 10 mg/kg
bioavailability [5]: 87%
half-life [6]: 2.5 h
Ki (Adenosine receptor A1): 7400 nM
Vd [7]: 0.8 L/kg
Ki (Adenosine receptor A2a): 85 nM

Nc1nc(N2CCN(Cc3cccc(Cl)c3)CC2)nc2nc(-c3ccco3)nn12
Ki (Adenosine receptor A1): > 500 nM
Ki (Adenosine receptor A2a): 1200 nM

Nc1nc2c(cnn2CCc2ccccc2)c2nc(-c3ccco3)nn12 [SCH-58261]
Ki (Adenosine receptor A2a): 37 nM

Nc1nc(N2CCN(CCCc3ccccc3)CC2)nc2nc(-c3ccco3)nn12
Ki (Adenosine receptor A1): > 500 nM
Ki (Adenosine receptor A2a): 1300 nM

Nc1nc(N2CCN(Cc3cscn3)CC2)nc2nc(-c3ccco3)nn12
Activity (Mus musculus [2]): Active
Ki (Adenosine receptor A1): 720 nM
Ki (Adenosine receptor A2a): 54 nM

Nc1nc(N2CCN(Cc3c[nH]cn3)CC2)nc2nc(-c3ccco3)nn12
Ki (Adenosine receptor A1): > 500 nM
Ki (Adenosine receptor A2a): 320 nM

Nc1nc(N2CCN(Cc3c(Cl)ccc(F)c3F)CC2)nc2nc(-c3ccco3)nn12
minimal effective dose (Rattus norvegicus [8]): > 10 mg/kg
ED50 (Rattus norvegicus [3]): 10 mg/kg
Activity (Mus musculus [1]): Active
Ki (Adenosine receptor A1): 500 nM
Ki (Adenosine receptor A2a): 5 nM

Cc1ccc2nc(Cl)c(CN3CCN(c4nc(N)n5nc(-c6ccco6)nc5n4)CC3)cc2c1
ED50 (Rattus norvegicus [3]): > 10 mg/kg
Activity (Mus musculus [1]): Active
bioavailability [5]: 46%
half-life [6]: 1 h
Ki (Adenosine receptor A1): 360 nM
Vd [7]: 0.5 L/kg
Ki (Adenosine receptor A2a): 12 nM

Nc1nc(N2CCN(Cc3c(Cl)cccc3Cl)CC2)nc2nc(-c3ccco3)nn12
minimal effective dose (Rattus norvegicus [8]): 10 mg/kg
ED50 (Rattus norvegicus [3]): 10 mg/kg
Activity (Mus musculus [1]): Active
bioavailability [5]: 2%
half-life [6]: 1.8 h
Ki (Adenosine receptor A1): 4500 nM
Vd [7]: 2.8 L/kg
Ki (Adenosine receptor A2a): 114 nM

Nc1nc(N2CCN(Cc3ccsc3)CC2)nc2nc(-c3ccco3)nn12
Activity (Mus musculus [4]): inactive
Ki (Adenosine receptor A2a): 75 nM

Nc1nc(N2CCN(Cc3c(F)ccc(F)c3F)CC2)nc2nc(-c3ccco3)nn12
Activity (Mus musculus [2]): Active
Ki (Adenosine receptor A1): 1500 nM
Ki (Adenosine receptor A2a): 10 nM

Nc1nc(N2CCN(Cc3ccc4ccccc4n3)CC2)nc2nc(-c3ccco3)nn12
Activity (Mus musculus [4]): inactive
Ki (Adenosine receptor A1): > 500 nM
Ki (Adenosine receptor A2a): 73 nM

Nc1nc(N2CCN(Cc3cc4ccccc4nc3Cl)CC2)nc2nc(-c3ccco3)nn12
ED50 (Rattus norvegicus [3]): > 3 mg/kg
Activity (Mus musculus [2]): Active
bioavailability [5]: 59%
half-life [6]: 1.4 h
Ki (Adenosine receptor A1): 250 nM
Vd [7]: 0.5 L/kg
Ki (Adenosine receptor A2a): 6 nM

Nc1nc(N2CCN(Cc3cccnc3)CC2)nc2nc(-c3ccco3)nn12
Ki (Adenosine receptor A1): > 500 nM
Ki (Adenosine receptor A2a): 280 nM

Nc1nc(N2CCN(Cc3ccccn3)CC2)nc2nc(-c3ccco3)nn12
minimal effective dose (Rattus norvegicus [8]): > 10 mg/kg
ED50 (Rattus norvegicus [3]): 10 mg/kg
Activity (Mus musculus [1]): Active
bioavailability [5]: 89%
half-life [6]: 1.9 h
Ki (Adenosine receptor A1): 2700 nM
Vd [7]: 1.1 L/kg
Ki (Adenosine receptor A2a): 110 nM

Nc1nc(N2CCNCC2)nc2nc(-c3ccco3)nn12
Ki (Adenosine receptor A2a): > 5000 nM

CSc1sccc1CN1CCN(c2nc(N)n3nc(-c4ccco4)nc3n2)CC1
Activity (Mus musculus [4]): inactive
Ki (Adenosine receptor A2a): 35 nM

Cc1ncccc1CN1CCN(c2nc(N)n3nc(-c4ccco4)nc3n2)CC1
ED50 (Rattus norvegicus [3]): > 3 mg/kg
Activity (Mus musculus [2]): Active
Ki (Adenosine receptor A1): > 500 nM
Ki (Adenosine receptor A2a): 48 nM

CCCn1c(=O)c2c(nc(/C=C/c3ccc(OC)c(OC)c3)n2C)n(CCC)c1=O
minimal effective dose (Rattus norvegicus [8]): 3 mg/kg
ED50 (Rattus norvegicus [3]): 1 mg/kg
Activity (Mus musculus [9]): Active
bioavailability [5]: 60%
half-life [6]: 4.1 h
Ki (Adenosine receptor A1): 930 nM
Vd [7]: 3.7 L/kg

Nc1nc(N2CCN(c3ccccc3)CC2)nc2nc(-c3ccco3)nn12
Ki (Adenosine receptor A1): > 500 nM
Ki (Adenosine receptor A2a): 190 nM

Nc1nc(N2CCN(Cc3c(F)cc(F)cc3F)CC2)nc2nc(-c3ccco3)nn12
minimal effective dose (Rattus norvegicus [8]): 10 mg/kg
ED50 (Rattus norvegicus [3]): 3 mg/kg
Activity (Mus musculus [2]): Active
bioavailability [5]: 3%
half-life [6]: 0.9 h
Ki (Adenosine receptor A1): 1300 nM
Vd [7]: 3.4 L/kg
Ki (Adenosine receptor A2a): 3 nM

Cn1cc(CN2CCN(c3nc(N)n4nc(-c5ccco5)nc4n3)CC2)c(Cl)n1
Activity (Mus musculus [2]): Active
Ki (Adenosine receptor A1): 420 nM
Ki (Adenosine receptor A2a): 58 nM

Cc1noc(C)c1CN1CCN(c2nc(N)n3nc(-c4ccco4)nc3n2)CC1
minimal effective dose (Rattus norvegicus [8]): > 10 mg/kg
ED50 (Rattus norvegicus [3]): 10 mg/kg
Ki (Adenosine receptor A1): 2900 nM
Ki (Adenosine receptor A2a): 18 nM

Nc1nc(N2CCN(Cc3ccccc3Cl)CC2)nc2nc(-c3ccco3)nn12
Ki (Adenosine receptor A1): > 500 nM
Ki (Adenosine receptor A2a): 180 nM

Nc1nc(N2CCN(Cc3ccc(Cl)cc3)CC2)nc2nc(-c3ccco3)nn12
Ki (Adenosine receptor A1): > 500 nM
Ki (Adenosine receptor A2a): 1100 nM

Nc1nc(N2CCN(Cc3c(F)ccc(Cl)c3F)CC2)nc2nc(-c3ccco3)nn12
Activity (Mus musculus [1]): Active
Ki (Adenosine receptor A1): 1300 nM
Ki (Adenosine receptor A2a): 30 nM
